Results from publication PMC11203799, “Determining the Affinity and Kinetics of Small Molecule Inhibitors of Galectin-1 Using Surface Plasmon Resonance” (International Journal of Molecular Sciences, 2024).

Assays:
mouse galectin-1 = target: T1, mouse galectin-1 (Mus musculus, UniProt P16045); assay: SPR binding assay, mouse galectin-1
T1 construct: mouse galectin-1 (residues M1-E135); His-tag; made in house; host or cells: E. coli BL21
Description: (§1) For SPR studies, His-tagged proteins were expressed in E. coli strain BL21 (human galectin-1 (residues M1-D135) and mouse galectin-1 (residues M1-E135)) and purified as previously described. SDS-PAGE and mass spectrometry were used to confirm protein purity with all proteins stored at −80 °C until use. Human and mouse proteins for FP were produced as previously described.
(§2) The SPR method previously described for galectin-3 proteins was used here for galectin-1 [10]. Briefly, CM3 sensor chip surfaces (Cytiva, Marlborough, MA, USA) were pre-primed and equilibrated in immobilization buffer (10 mM HEPES, 150 mM NaCl (pH 7.4)) using an Amine Coupling Kit (Cytiva, Marlborough, MA, USA) prior to the immobilization of protein (injected at 10 µg/mL in PBS at pH 6.0). […] Chips surfaces were blocked with ethanolamine HCl (pH 8.5) for 420 s upon reaching the immobilization required. Then, EDC/NHS and ethanolamine were used to treat blank surfaces that were protein-free. Running buffer (RB) was used to dilute compounds (10 mM HEPES, 150 mM NaCl, 1 mM DTT, 0.05% Tween 20, 5% DMSO (pH 7.4)), pre-filtered, degassed, and then injected for 1 min at a flow rate of 30 μL/min. […] Following each cycle, the chip surface was auto-regenerated and aided by fast compound off-rates, and a further wash set was completed in RB. […]

human galectin-1 [1] = target: T2, human galectin-1 (Homo sapiens, UniProt P09382); assay: SPR binding assay, human galectin-1
T2 construct: human galectin-1 (residues M1-D135); His-tag; made in house; host or cells: E. coli BL21
Description: as §1, §2

human galectin-1 [2] = target: T2, human galectin-1; assay: Fluorescence polarization (FP) binding assay, galectin-1; details: human vs mouse galectin-1
Description: as §1

T2 sequence (P09382 whole entry, the tested form may be a part): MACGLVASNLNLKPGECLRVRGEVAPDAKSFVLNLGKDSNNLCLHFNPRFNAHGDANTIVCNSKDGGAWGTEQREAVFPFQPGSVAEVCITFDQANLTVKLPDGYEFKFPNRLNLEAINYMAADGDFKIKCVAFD
T1 sequence (P16045 whole entry, the tested form may be a part): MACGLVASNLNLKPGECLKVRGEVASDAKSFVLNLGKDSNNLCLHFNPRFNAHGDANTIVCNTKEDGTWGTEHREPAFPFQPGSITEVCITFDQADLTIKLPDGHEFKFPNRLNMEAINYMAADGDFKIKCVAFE

Fold KD Differences SPR Human vs. Mouse Gal-1 (human galectin-1 [1]; SPR assay, human vs mouse galectin-1) [fold]	Fold KD Differences Human Gal-1 FP vs. SPR (human galectin-1 [1]; human galectin-1, FP vs SPR assay format) [fold]	Fold KD Differences FP Human vs. Mouse Gal-1 (human galectin-1 [2]) [fold]	Fold KD Differences Mouse Gal-1 FP vs. SPR (mouse galectin-1; FP vs SPR assay format) [fold]	Structure (SMILES)	Kd (mouse galectin-1; koff/kon, 1:1 Langmuir model, 25 °C, read-out: kinetic KD in SPR) [nM]
–	–	–	–	OC[C@H]1O[C@@H](S[C@@H]2O[C@H](CO)[C@H](O)[C@H](n3cc(-c4cccc(F)c4)nn3)[C@H]2O)[C@H](O)[C@@H](n2cc(-c3cccc(F)c3)nn2)[C@H]1O [Compound 1, GB0139]	131
0.6	1.8	0.6	1.6	OC[C@H]1O[C@H](Sc2cc(Cl)c(F)c(Cl)c2)[C@H](O)[C@@H](n2cc(-c3nccs3)nn2)[C@H]1O [Compound 4, GB1490]	–
